Where two headings read alike, the source gives them in different places.
Tests used:
[1] = test system: HIV-1 replication in H9 cells; assay: HIV-1 replication inhibition in acutely infected H9 lymphocytes (p24 antigen ELISA); assay type: cell-based, HIV-1 (IIIB strain); details: for anti-HIV activity in H9 cells (in words): acutely infected H9 cells
How it was run: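 H9 T cells exposed to HIV-1 IIIB (0.01-0.1 TCID50/cell) for 1 h at 37° C, washed, then grown with compound for 3-4 days at 37° C. Toxicity taken from cell counts of uninfected cultures and virus from p24 ELISA of supernatants. EC50 and IC50 were read graphically from concentration versus percent inhibition plots.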

[2] = test system: chronically HIV-1 infected ACH-2 cells; assay: Virus expression from chronically HIV-1 infected T cell line ACH-2 (p24 antigen ELISA); assay type: cell-based; details: for effect on virus expression of PMA-stimulated ACH-2 cells (in words): with PMA; for induction of virus expression from ACH-2 cells (in words): without PMA
Description: (§1) Effects of suksdorfin analogs on Chronically HIV-1 infected cells. The experimental design is as follows: The phorbol ester, PMA (10^-8 M) and various concentrations of suksdorfin were either added or not added to both the chronically HIV-1 infected T cell line (ACH-2) and to the chronically HIV-1 infected monocytic cell line (U1). Cell-free supernatant was collected 72 hours post culture for p24 antigen ELISA.
Results (Table 11) from adding compound 16 to the chronically HIV-infected T cell line, ACH-2, according to methods in above examples. ACH-2 are a chronically HIV-1 infected T cell line. It was derived from A3.01 cells which is a subclone of the CEM cell line. The data below indicates the following points:
(§2) Chronically HIV-1 infected cell lines. HIV-1 chronically infected T cell line, ACH-2^12, and HIV-1 chronically infected promonocytic cell line, U1 13, were continuously maintained in RPMI 1640 with 10% fetal calf serum (FCS). For experiments, the cell lines were only used in the […] of growth. Cells (0.5×10^6 cells/well) and either various concentrations of suksdorfin or medium alone were added to 24-well plates in the presence or absence of PMA (10^-8 M). After 72 hours at 37° C. and 5% CO2, an aliquot of the cell-free supernatants were collected and analyzed for p24 antigen by ELISA (see below for details of p24 antigen ELISA).

[3] = test system: chronically HIV-1 infected U1 cells; assay: Virus expression from chronically HIV-1 infected monocytic cell line U1 (p24 antigen ELISA); assay type: cell-based; details: for effect on virus expression of PMA-stimulated U1 cells (in words): with PMA; for induction of virus expression from U1 cells (in words): without PMA
Description: as §1
Compound 16 was also assayed on ACH-2 (chronically HIV-1 infected T cell line). U1 cells are also chronically HIV-1 infected cells but they are from the monocytic cell line, U937. The data presented in Table 8 indicates the following points:
as §2

For `CC(=O)O[C@@H]1[C@H](OC(=O)CC(C)C)c2c(ccc3ccc(=O)oc23)OC1(C)C` [Suksdorfin, suksdorfin], the EC50 ([1]; Human immunodeficiency virus 1, H9, Table 17, acutely infected H9 lymphocytes, read-out: EC50) was 1.3 µM, the EC50 ([1]; Human immunodeficiency virus 1, H9, acutely infected H9 cells, concentration which inhibits viral replication by 50%, Inactive = No suppression of HIV-1 replication in H9 cells, read-out: EC50) was 1.3 µM and the EC50 ([1]; Human immunodeficiency virus 1, H9, earlier value, read-out: EC50 (value before increase)) was 0.5 to 0.8 mg/L. The IC50 ([1]; Human immunodeficiency virus 1, Table 14, concentration which inhibits viral replication by 50%, Inactive = No suppression of HIV-1 replication in H9 cells, read-out: IC50 (μM)^b) was 1.3 µM, the “Therapeutic Index” value ([1]; IC50 for cell growth inhibition divided by EC50 for HIV inhibition, H9) was > 40 and the “Therapeutic Index” value ([1]; Table 14) was > 40.0. For the same compound, the “Therapeutic Index” value ([1]; Table 17, H9) was > 40, the “anti-HIV activity in H9 cells (in words)” value [1] was “suppressed virus replication” and the “anti-HIV activity in H9 cells (in words)” value ([1]; listed as 1) was “potent anti-HIV-1 activity at nontoxic concentrations”. For the same compound, the P24 ([2]; ACH-2, +PMA, 0.16 μg/ml) was 50,775 pg/ml, the P24 ([2]; ACH-2, +PMA, 0.8 μg/ml) was 55,910 pg/ml and the P24 ([2]; ACH-2, +PMA, 4 μg/ml) was 61,235 pg/ml. For the same compound, the P24 ([2]; ACH-2, +PMA, 20 μg/ml) was 49,914 pg/ml, the P24 ([2]; ACH-2, -PMA, 0.16 μg/ml) was 3,688 pg/ml and the P24 ([2]; ACH-2, -PMA, 0.8 μg/ml) was 3,821 pg/ml. For the same compound, the P24 ([2]; ACH-2, -PMA, 4 μg/ml) was 4,723 pg/ml, the P24 ([2]; ACH-2, -PMA, 20 μg/ml) was 4,541 pg/ml and the “effect on virus expression of PMA-stimulated ACH-2 cells (in words)” value [2] was “no significant alteration in the level of virus expression”. The “effect on virus expression of PMA-stimulated ACH-2 cells (in words)” value ([2]; listed as 1) was “no alteration in the level of virus expression”, the “induction of virus expression from ACH-2 cells (in words)” value [2] was “The answer is no” and the “induction of virus expression from ACH-2 cells (in words)” value ([2]; listed as 1) was “no increase in the induction of virus expression”. For the same compound, the P24 ([3]; U1, +PMA, 0.16 μg/ml) was 6,611 pg/ml, the P24 ([3]; U1, +PMA, 0.8 μg/ml) was 7,360 pg/ml and the P24 ([3]; U1, +PMA, 4 μg/ml) was 9,728 pg/ml. For the same compound, the P24 ([3]; U1, +PMA, 20 μg/ml) was 5,096 pg/ml, the P24 ([3]; U1, -PMA, 0.16 μg/ml) was 0 pg/mL and the P24 ([3]; U1, -PMA, 0.8 μg/ml) was 0 pg/mL. The P24 ([3]; U1, -PMA, 4 μg/ml) was 0 pg/mL, the P24 ([3]; U1, -PMA, 20 μg/ml) was 0 pg/mL and the “effect on virus expression of PMA-stimulated U1 cells (in words)” value [3] was “no significant alteration in the level of virus expression”. The “effect on virus expression of PMA-stimulated U1 cells (in words)” value ([3]; listed as 1) was “no alteration in the level of virus expression”, the “induction of virus expression from U1 cells (in words)” value [3] was “The answer is no” and the “induction of virus expression from U1 cells (in words)” value ([3]; listed as 1) was “no increase in the induction of virus expression”.

— patent US6319929A, “Suksdorfin analogs, compositions thereof, and methods for making and using thereof” (priority 1998, dated 2001)
